Experimental findings from paper PMC3961306, “Comparison of the Cancer Gene Targeting and Biochemical Selectivities of All Targeted Kinase Inhibitors Approved for Clinical Use” (PLoS ONE, 2014) are described below.

Each structure is given as a SMILES string.

What all share (test): Kinase profiling in a biochemical assay panel (mobility shift assays and ELISA), %-inhibition at 1 μM; selectivity entropy
For test [1], the target named is T1, panel of more than 300 wild-type and mutant kinases (313 kinase panel) (Homo sapiens, UniProt Q9BZL6).
T1 sequence (Q9BZL6 1-878): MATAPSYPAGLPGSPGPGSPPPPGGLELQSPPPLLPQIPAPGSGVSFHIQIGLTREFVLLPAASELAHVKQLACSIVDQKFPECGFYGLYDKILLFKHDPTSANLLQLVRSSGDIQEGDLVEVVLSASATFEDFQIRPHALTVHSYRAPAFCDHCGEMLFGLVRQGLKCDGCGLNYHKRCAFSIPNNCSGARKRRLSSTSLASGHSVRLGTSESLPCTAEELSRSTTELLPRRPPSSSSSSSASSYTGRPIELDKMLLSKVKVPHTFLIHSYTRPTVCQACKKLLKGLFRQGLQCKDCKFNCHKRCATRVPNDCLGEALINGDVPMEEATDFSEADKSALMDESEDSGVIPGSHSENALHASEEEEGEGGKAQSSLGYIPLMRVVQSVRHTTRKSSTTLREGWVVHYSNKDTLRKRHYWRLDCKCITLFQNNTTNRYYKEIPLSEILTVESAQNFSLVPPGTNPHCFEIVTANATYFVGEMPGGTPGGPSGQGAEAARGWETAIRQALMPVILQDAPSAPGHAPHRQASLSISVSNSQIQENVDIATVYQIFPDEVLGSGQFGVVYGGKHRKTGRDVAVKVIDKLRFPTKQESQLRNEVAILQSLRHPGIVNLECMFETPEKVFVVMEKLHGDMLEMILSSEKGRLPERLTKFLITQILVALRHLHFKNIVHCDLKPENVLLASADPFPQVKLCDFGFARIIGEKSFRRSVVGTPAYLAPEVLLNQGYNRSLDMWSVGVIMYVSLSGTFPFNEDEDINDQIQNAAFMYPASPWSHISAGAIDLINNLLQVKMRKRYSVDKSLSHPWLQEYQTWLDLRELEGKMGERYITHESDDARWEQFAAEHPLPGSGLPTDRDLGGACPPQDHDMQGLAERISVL

Test [2] deals with panel of more than 300 wild-type and mutant kinases (313 kinase panel) (Homo sapiens, UniProt Q9P286).
Chain of panel of more than 300 wild-type and mutant kinases (313 kinase panel) (Homo sapiens, UniProt Q9P286) (Q9P286 whole entry, change not shown): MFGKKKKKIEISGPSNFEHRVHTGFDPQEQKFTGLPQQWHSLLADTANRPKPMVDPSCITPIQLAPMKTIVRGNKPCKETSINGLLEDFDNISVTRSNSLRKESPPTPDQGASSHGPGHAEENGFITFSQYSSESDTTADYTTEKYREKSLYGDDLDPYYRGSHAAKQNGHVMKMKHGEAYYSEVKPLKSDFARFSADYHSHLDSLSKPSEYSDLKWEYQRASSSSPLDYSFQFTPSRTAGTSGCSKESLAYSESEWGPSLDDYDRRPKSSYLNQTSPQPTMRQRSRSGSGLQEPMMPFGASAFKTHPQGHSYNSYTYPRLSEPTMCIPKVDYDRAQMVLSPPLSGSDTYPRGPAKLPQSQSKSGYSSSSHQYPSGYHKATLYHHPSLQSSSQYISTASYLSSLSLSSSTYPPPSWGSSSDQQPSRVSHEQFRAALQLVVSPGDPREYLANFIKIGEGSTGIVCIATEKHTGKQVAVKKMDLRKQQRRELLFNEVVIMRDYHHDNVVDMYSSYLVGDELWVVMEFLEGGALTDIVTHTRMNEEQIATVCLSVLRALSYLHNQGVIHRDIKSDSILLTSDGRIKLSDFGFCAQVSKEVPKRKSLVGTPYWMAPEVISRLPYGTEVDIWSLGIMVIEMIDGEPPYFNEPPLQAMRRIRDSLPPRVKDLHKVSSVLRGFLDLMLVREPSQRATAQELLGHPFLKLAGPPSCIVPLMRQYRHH
Test [3] deals with panel of more than 300 wild-type and mutant kinases (313 kinase panel) (Homo sapiens, UniProt P11362).
Chain of panel of more than 300 wild-type and mutant kinases (313 kinase panel) (Homo sapiens, UniProt P11362) (P11362 22-822, change not shown): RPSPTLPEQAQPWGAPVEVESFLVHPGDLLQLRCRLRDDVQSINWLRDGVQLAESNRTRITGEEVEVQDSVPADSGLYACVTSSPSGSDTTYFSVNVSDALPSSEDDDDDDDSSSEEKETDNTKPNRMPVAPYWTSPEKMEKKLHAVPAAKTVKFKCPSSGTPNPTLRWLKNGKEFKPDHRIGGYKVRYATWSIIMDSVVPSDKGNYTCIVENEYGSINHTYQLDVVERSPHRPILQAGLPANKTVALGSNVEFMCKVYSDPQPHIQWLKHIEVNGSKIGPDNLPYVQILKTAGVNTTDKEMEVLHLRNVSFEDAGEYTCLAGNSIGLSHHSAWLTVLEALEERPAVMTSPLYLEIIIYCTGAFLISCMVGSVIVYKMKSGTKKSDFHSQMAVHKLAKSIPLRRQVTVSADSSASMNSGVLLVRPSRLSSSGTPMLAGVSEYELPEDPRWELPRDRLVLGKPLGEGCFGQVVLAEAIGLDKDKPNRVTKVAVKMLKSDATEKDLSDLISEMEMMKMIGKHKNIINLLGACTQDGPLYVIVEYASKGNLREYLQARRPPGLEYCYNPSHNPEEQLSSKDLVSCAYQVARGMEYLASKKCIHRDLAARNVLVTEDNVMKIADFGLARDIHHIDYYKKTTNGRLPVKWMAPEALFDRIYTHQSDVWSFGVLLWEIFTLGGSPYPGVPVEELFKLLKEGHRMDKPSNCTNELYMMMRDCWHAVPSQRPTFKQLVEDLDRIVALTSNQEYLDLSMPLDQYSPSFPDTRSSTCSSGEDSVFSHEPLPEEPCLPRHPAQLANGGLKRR
Test [4] addresses panel of more than 300 wild-type and mutant kinases (313 kinase panel) (Homo sapiens, UniProt Q9BYP7).
For test [5], the target named is panel of more than 300 wild-type and mutant kinases (313 kinase panel) (Homo sapiens, UniProt Q9Y6R4).
Chain of panel of more than 300 wild-type and mutant kinases (313 kinase panel) (Homo sapiens, UniProt Q9Y6R4) (Q9Y6R4 whole entry, change not shown): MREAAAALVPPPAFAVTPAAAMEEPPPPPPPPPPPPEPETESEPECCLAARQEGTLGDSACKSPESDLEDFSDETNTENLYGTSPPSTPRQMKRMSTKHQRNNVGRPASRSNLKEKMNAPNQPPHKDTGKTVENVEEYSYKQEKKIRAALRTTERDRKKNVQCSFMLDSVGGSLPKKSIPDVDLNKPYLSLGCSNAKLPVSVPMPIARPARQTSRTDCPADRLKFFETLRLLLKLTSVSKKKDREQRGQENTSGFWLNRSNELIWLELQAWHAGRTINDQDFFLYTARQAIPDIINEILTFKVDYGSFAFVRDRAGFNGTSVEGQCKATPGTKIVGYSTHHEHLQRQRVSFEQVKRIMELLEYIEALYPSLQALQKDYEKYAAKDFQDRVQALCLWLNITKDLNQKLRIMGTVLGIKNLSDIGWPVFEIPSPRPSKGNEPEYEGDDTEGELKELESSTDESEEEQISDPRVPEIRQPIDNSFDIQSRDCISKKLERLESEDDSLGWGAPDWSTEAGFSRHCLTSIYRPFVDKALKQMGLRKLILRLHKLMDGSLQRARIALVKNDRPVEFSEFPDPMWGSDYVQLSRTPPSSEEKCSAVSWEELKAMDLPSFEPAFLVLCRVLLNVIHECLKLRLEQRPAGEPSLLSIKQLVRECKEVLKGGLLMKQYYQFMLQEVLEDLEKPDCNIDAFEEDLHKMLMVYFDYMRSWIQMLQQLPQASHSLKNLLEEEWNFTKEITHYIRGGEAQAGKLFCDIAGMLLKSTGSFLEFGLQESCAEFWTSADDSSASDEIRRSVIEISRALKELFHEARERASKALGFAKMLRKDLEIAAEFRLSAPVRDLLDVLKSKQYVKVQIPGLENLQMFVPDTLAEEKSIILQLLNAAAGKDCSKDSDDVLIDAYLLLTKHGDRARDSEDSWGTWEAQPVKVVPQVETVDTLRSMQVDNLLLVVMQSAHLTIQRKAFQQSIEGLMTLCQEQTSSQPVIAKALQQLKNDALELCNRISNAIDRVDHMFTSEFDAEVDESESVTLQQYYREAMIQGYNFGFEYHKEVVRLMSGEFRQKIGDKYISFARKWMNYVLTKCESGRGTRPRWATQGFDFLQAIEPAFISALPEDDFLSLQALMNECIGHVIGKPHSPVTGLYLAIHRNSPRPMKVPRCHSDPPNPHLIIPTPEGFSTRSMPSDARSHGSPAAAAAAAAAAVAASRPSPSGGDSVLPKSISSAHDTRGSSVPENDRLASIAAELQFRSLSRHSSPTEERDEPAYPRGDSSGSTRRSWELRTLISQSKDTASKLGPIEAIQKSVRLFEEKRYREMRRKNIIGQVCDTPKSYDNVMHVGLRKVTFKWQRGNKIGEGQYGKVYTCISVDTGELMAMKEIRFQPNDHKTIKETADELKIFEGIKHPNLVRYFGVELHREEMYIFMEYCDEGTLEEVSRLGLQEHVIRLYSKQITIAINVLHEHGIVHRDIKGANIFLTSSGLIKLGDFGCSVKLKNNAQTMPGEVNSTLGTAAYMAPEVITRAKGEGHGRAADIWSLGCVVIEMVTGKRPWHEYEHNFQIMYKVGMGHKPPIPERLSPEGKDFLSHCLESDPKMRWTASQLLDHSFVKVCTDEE
Test [6] has as its target T2, panel of more than 300 wild-type and mutant kinases (313 kinase panel) (Homo sapiens, UniProt P53778).
T2 sequence (P53778 1-367): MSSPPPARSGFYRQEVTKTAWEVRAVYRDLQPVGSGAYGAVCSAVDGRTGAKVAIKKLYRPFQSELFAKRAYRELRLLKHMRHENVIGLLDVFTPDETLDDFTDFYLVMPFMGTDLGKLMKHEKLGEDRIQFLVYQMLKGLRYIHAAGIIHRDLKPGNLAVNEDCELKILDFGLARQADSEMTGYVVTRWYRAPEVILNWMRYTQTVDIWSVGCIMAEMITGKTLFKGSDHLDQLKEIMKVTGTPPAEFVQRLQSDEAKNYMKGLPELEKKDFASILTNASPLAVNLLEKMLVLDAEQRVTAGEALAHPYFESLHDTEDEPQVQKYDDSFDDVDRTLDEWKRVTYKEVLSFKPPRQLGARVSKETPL

Test [7] addresses T3, panel of more than 300 wild-type and mutant kinases (313 kinase panel) (Homo sapiens, UniProt Q9NRM7).
T3 sequence (Q9NRM7 1-1088): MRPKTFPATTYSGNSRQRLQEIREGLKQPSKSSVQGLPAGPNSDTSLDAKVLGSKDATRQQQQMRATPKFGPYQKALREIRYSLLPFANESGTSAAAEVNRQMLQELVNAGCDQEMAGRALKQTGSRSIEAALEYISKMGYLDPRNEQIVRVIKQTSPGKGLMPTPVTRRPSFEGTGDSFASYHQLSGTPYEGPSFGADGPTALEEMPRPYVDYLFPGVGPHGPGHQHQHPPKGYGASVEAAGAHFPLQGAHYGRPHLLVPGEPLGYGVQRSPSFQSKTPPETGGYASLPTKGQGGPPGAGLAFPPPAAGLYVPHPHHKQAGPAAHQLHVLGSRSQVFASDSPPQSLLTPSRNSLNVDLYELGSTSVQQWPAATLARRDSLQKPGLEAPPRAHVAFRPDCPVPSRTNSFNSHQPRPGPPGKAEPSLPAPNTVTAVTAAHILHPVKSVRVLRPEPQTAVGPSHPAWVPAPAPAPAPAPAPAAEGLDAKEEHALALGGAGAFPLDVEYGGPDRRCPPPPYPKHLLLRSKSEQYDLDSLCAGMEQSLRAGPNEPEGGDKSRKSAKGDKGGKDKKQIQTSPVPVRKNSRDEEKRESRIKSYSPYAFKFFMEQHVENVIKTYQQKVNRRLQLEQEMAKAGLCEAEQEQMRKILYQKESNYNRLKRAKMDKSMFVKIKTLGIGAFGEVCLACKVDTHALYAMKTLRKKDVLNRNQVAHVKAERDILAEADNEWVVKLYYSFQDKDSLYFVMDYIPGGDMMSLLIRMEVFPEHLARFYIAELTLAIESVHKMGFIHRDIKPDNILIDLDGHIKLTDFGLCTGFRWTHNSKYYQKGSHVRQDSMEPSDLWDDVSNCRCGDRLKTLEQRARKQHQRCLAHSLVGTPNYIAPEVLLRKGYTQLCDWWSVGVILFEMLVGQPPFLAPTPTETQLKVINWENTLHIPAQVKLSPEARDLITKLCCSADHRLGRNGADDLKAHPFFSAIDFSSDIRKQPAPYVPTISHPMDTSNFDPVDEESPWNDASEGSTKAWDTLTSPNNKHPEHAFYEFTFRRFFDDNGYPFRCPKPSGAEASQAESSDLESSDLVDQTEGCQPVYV

[8] abbreviates: kinase MAP3K4, compound at 1 μM.

Chain of panel of more than 300 wild-type and mutant kinases (313 kinase panel) (Homo sapiens, UniProt Q9BYP7) (Q9BYP7 whole entry, change not shown): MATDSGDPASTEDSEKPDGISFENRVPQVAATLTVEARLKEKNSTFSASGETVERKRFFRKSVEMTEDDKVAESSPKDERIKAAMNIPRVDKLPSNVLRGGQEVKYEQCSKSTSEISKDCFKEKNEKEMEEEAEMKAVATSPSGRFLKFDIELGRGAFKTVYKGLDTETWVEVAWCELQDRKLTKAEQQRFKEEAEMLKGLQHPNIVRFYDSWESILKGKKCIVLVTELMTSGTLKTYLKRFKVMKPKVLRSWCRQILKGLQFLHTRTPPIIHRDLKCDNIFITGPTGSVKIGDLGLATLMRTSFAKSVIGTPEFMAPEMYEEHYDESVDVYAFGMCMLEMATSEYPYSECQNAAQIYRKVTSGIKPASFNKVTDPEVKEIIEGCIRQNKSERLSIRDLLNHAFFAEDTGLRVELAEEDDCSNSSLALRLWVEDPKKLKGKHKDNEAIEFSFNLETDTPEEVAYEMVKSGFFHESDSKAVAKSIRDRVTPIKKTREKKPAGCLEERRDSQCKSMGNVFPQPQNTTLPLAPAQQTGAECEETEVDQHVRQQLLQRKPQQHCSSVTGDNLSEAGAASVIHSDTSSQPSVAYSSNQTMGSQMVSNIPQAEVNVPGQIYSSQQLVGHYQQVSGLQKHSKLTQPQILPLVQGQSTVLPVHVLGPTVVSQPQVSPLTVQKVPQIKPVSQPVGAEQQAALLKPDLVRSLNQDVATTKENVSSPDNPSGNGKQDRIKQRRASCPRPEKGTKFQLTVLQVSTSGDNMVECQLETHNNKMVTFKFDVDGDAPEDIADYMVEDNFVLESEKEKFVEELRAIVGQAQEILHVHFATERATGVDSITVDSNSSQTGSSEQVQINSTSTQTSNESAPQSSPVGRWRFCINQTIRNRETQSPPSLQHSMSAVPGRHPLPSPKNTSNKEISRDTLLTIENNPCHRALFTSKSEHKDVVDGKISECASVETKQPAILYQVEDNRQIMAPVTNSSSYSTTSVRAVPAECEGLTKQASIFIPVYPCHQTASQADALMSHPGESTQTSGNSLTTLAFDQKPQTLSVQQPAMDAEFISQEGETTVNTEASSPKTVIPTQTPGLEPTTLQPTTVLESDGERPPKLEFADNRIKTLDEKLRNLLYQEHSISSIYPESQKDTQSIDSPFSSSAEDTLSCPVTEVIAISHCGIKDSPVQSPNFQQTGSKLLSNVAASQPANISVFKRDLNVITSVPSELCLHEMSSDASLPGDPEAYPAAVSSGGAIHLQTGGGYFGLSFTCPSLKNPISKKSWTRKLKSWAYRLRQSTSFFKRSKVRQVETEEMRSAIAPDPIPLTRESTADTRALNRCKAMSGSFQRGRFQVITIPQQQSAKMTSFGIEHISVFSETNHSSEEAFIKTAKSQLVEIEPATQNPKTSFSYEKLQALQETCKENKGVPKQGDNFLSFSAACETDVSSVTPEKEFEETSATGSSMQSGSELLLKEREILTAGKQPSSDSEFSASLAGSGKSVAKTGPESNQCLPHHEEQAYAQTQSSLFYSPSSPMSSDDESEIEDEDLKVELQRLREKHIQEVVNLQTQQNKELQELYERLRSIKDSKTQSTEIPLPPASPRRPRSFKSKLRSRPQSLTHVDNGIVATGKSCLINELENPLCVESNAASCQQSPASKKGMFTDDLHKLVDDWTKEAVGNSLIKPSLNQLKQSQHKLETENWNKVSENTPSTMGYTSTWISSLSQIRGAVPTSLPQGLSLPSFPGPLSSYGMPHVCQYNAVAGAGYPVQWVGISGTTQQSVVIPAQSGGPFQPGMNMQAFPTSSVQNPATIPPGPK

Regarding `CCCS(=O)(=O)Nc1ccc(F)c(C(=O)c2c[nH]c3ncc(-c4ccc(Cl)cc4)cc23)c1F` [vemurafenib], in test [1] (kinase PKD2, 1 μM), the “%-inhibition of PKD2” value is -13%. For the same compound, in test [2] (kinase PAK5, 1 μM), the “%-inhibition of PAK5” value is listed as -1.23%. Further, the “%-inhibition of FGFR1” value in test [3] (kinase FGFR1, compound at 1 μM) is 21%. In addition, the “%-inhibition of WNK3” value in test [4] (kinase WNK3, compound at 1 μM) stood at 53%. In test [5] (setting [8]), the “%-inhibition of MAP3K4” value came out at 14%. Further, in test [6] (kinase p38γ, 1 μM), the “%-inhibition of p38γ” value is recorded as -0.299%. Further, the “%-inhibition of LATS2” value in test [7] (kinase LATS2, compound at 1 μM) is recorded as -2.28%.

As to `C#Cc1cccc(Nc2ncnc3cc(OCCOC)c(OCCOC)cc23)c1` [erlotinib], in test [1] (1 µM), the “%-inhibition of PKD2” value is 17%. Moreover, the “%-inhibition of PAK5” value in test [2] (1 µM) is on record as -0.141%. Moreover, the “%-inhibition of FGFR1” value in test [3] (1 µM) is recorded as 24%. Also, in test [4] (1 µM), the “%-inhibition of WNK3” value is recorded as 0.315%. Further, the “%-inhibition of MAP3K4” value in test [5] (1 µM) was -1.55%. Besides, in test [6] (1 µM), the “%-inhibition of p38γ” value is recorded as 4.5%. The “%-inhibition of LATS2” value in test [7] (1 µM) was -8%.

On to `Cc1ccc(C(=O)Nc2ccc(CN3CCN(C)CC3)c(C(F)(F)F)c2)cc1C#Cc1cnc2cccnn12` [ponatinib], for which the “%-inhibition of PKD2” value in test [1] (kinase PKD2, 1 μM) was 9.48%. The “%-inhibition of PAK5” value in test [2] (kinase PAK5, 1 μM) was -0.481%. The “%-inhibition of FGFR1” value in test [3] (kinase FGFR1, compound at 1 μM) is given as 101%. Moreover, the “%-inhibition of WNK3” value in test [4] (kinase WNK3, compound at 1 μM) came out at 0.73%. In addition, in test [5] (setting [8]), the “%-inhibition of MAP3K4” value is given as 60%. In addition, in test [6] (kinase p38γ, 1 μM), the “%-inhibition of p38γ” value is 86%. For the same compound, the “%-inhibition of LATS2” value in test [7] (kinase LATS2, compound at 1 μM) was 16%.

With `CO[C@H]1C[C@@H]2CC[C@@H](C)[C@@](O)(O2)C(=O)C(=O)N2CCCC[C@H]2C(=O)O[C@H]([C@H](C)C[C@@H]2CC[C@@H](OC(=O)C(C)(CO)CO)[C@H](OC)C2)CC(=O)[C@H](C)/C=C(\C)[C@@H](O)[C@@H](OC)C(=O)[C@H](C)C[C@H](C)/C=C/C=C/C=C/1C` [temsirolimus], the “%-inhibition of PKD2” value in test [1] (kinase PKD2, 1 μM) is reported as -16%. The “%-inhibition of PAK5” value in test [2] (kinase PAK5, 1 μM) was -6%. Moreover, the “%-inhibition of FGFR1” value in test [3] (kinase FGFR1, compound at 1 μM) is listed as -6.47%. The “%-inhibition of WNK3” value in test [4] (kinase WNK3, compound at 1 μM) is reported as -13%. In test [5] (setting [8]), the “%-inhibition of MAP3K4” value is on record as 11%. Besides, the “%-inhibition of p38γ” value in test [6] (kinase p38γ, 1 μM) is -5.48%. In test [7] (kinase LATS2, compound at 1 μM), the “%-inhibition of LATS2” value is given as -4.56%.

For the compound `Cc1cn(-c2cc(NC(=O)c3ccc(C)c(Nc4nccc(-c5cccnc5)n4)c3)cc(C(F)(F)F)c2)cn1` [nilotinib], the “%-inhibition of PKD2” value in test [1] (kinase PKD2, 1 μM) is listed as -3%. Further, the “%-inhibition of PAK5” value in test [2] (kinase PAK5, 1 μM) worked out at 3.39%. Besides, the “%-inhibition of FGFR1” value in test [3] (kinase FGFR1, compound at 1 μM) was -29%. Further, the “%-inhibition of WNK3” value in test [4] (kinase WNK3, compound at 1 μM) is recorded as -7%. The “%-inhibition of MAP3K4” value in test [5] (setting [8]) is listed as -18%. Besides, the “%-inhibition of p38γ” value in test [6] (kinase p38γ, 1 μM) is -15%. Besides, the “%-inhibition of LATS2” value in test [7] (kinase LATS2, compound at 1 μM) is listed as -72%.
